This note sets out measurements from patent US20030186814A1, “Enhanced herbicide composition” (Valent BioSciences Corporation, priority 2002, published 2003).

Where a name gives a salt, the structure may show the parent alone.

For one data set, the system named is tobacco. Nature of the data set: Phytotoxicity rating after foliar spray, tobacco. It is filed as in vivo, Nicotiana tabacum (tobacco). The settings on record: alone or with 5 mM NaSA, COC 0.1%, mean rating 1-5, n = 5 plants. On the procedure: (§1) In all experiments, deionized ultra-pure water was used in preparing solutions. Spray solutions were used as soon as possible after mixing.
(§2) COC was added to all spray solutions at a rate of 0.10% (v/v). For all treatments containing both an herbicide and a salicylate, these materials were mixed and applied in a single spray solution (commonly known as a tank mix). After spraying, plants were moved to the greenhouse and arranged in a randomized complete block experimental design. Plants were evaluated for phytotoxicity/herbicidal effects after spraying by assessing damage according to the following scale:
(§3) 5=100% leaf area affected (dead)
(§4) All the data were subject to an analysis of variance, and the mean separations were determined with Duncan's multiple range test at α=0.05.

Another data set concerns Giant Foxtail. Nature of the data set: Phytotoxicity rating after foliar spray, Giant Foxtail. It is filed as in vivo, Setaria faberi (giant foxtail). The settings on record: Table 3; glyphosate 0.2% (v/v), alone or with 5 mM NaSA; COC 0.1%; mean rating 1-5; n = 5 plants. On the procedure: as §1, §2, §3, §4
A further data set concerns Lambsquarters. Nature of the data set: Phytotoxicity rating after foliar spray, Lambsquarters. The settings on record: Table 4, alone or with 5 mM NaSA, COC 0.1%, mean rating 1-5, n = 6 plants. The data set is classed as in vivo, Chenopodium album (lambsquarter). On the procedure: as §1, §2, §3, §4
A further data set concerns NK S2676 Soybean. In words: Phytotoxicity rating after foliar spray, Roundup Ready soybean. To be noted: Table 5, glyphosate-tolerant crop, n = 4 plants. On the procedure: as §1, §2, §3, §4
Roundup Ready crops are tolerant to glyphosate. This tolerance is conferred by genetic modification of the crop species by the insertion of a glyphosate-insensitive EPSP synthase.

Where [1] appears, read: Table 2, glyphosate or Roundup 0.2% (v/v glyphosate).
The mark [2] stands for this setting: glyphosate 0.1% (v/v) + COC 0.1%, mean rating 1-5.

For the compound `O=C(O)CNCP(=O)(O)O` [Glyphosate, N-(phosphonomethyl)glycine, monoisopropylamine salt], in the data set with tobacco (Table 1, glyphosate 0.04%), the “Phytotoxicity at 4d” value stood at 1.2 A, the “Phytotoxicity at 6d” value is listed as 1.7 BC, the “Phytotoxicity at 8d” value is listed as 2 B and the “Phytotoxicity at 11d” value worked out at 3.1 B. Further, in the data set with tobacco (Table 1, glyphosate 0.04%), the “Phytotoxicity at 14d” value is given as 3.6 B. Besides, in the data set on tobacco (Table 1, glyphosate 0.2% (v/v)), the “Phytotoxicity at 4d” value was 1.5 B, the “Phytotoxicity at 6d” value is 2.2 CD, the “Phytotoxicity at 8d” value is listed as 3.1 D and the “Phytotoxicity at 11d” value was found to be 4.1 D. Further, the “Phytotoxicity at 14d” value in the data set with tobacco (Table 1, glyphosate 0.2% (v/v)) stood at 4.9 C. In addition, in the data set with tobacco (setting [1]), the “Phytotoxicity at 5f” value turned out to be 1.5 BC, the “Phytotoxicity at 2d” value is recorded as 1.3 B, the “Phytotoxicity at 8d” value is 3.3 C and the “Phytotoxicity at 13d” value is reported as 4.9 B. In the data set on Giant Foxtail, the “Phytotoxicity at 8d” value is listed as 3.8 A, the “Phytoxicity at 6d” value turned out to be 2.0 B and the “Phytoxicity at 11d” value was found to be 4.9 B. Further, in the data set on Lambsquarters (glyphosate 0.004%), the “Phytotoxicity at 3d” value is recorded as 1.0 A, the “Phytotoxicity at 7d” value was determined as 1.3 AB and the “Phytotoxicity at 11d” value is 1.3 AB. Besides, in the data set with Lambsquarters (glyphosate 0.02%), the “Phytotoxicity at 3d” value was found to be 1.0 A, the “Phytotoxicity at 7d” value is 1.5 ABC and the “Phytotoxicity at 11d” value was 2.1 BC. For the same compound, in the data set with Lambsquarters (glyphosate 0.04%), the “Phytotoxicity at 3d” value is on record as 1.0 A, the “Phytotoxicity at 7d” value was determined as 1.6 BC and the “Phytotoxicity at 11d” value is recorded as 2.4 C. In the data set on Lambsquarters (glyphosate 0.2% (v/v)), the “Phytotoxicity at 3d” value turned out to be 1.4 BC, the “Phytotoxicity at 7d” value turned out to be 2.4 D and the “Phytotoxicity at 11d” value is on record as 4.0 D. For the same compound, in the data set on NK S2676 Soybean (setting [2]), the “Phytotoxicity at 1d” value is 1.6 BC, the “Phytotoxicity at 4d” value is 1.8 BC, the “Phytotoxicity at 6d” value came to 1.9 C and the “Phytotoxicity at 11d” value is recorded as 1.9 D.
Turning to `O=C([O-])c1ccccc1O.[Na+]` [NaSA, sodium salicylate], in the data set with NK S2676 Soybean (NaSA 5 mM + COC 0.1%, mean rating 1 = no damage to 5 = dead), the “Phytotoxicity at 4d” value was 1.5 B.
